We go through two compounds from patent publication US10646508B1, “Method of safely administering nitrate dietary supplements and compositions” (ThermoLife International, LLC, priority 2007, dated 2020).

SMILES strings stand for the structures.

Data set [1] in a line: Intrinsic dissolution profiles (modified Wood's apparatus, USP type II). It counts as physicochemical. The protocol: Objective: The objective of this study was to determine the dissolution characteristics of three different forms of commercially available Creatine including Creatine nitrate (CN), Creatine monohydrate (CM) and buffered Creatine (BC) under different temperature and pH. Methods: Intrinsic dissolution studies were carried out at 37° C. and room temperature in pH 2.5 and 7.4 buffer using modified Wood's apparatus. CN, CM and BC samples (˜0.5 g) were compressed in the dies with constant surface area of 1.21 cm2 using a Carver press at 2000 psi with a dwell time of 10 sec. These dies were placed in the USP dissolution apparatus (type II) containing 140 ml of dissolution media, with paddle speed of 50 rpm. Dissolution medium were collected at definite time intervals over a period of 3 hours for CN and 7 hours for both CM and BC and analyzed for Creatine using a validated HPLC method. Results: A plot of the amount of Creatine dissolved (mg)/surface area (cm2) versus time gives the slope (k′) which is directly proportional to the dissolution rate constant. The k′ (mg/cm2 hr) values for CN, CM and BC in pH 2.5 buffer at room temperature were 293.0±3.48, 59.1±2.06 and 71.1±0.59. At 37° C. these k′ (mg/cm2 hr) values were 327.3±2.66, 97.9±0.88 and 117.9±1.12, respectively. In pH 7.4 buffer, the k′ (mg/cm2 hr) values for CN, CM and BC were 278.9±14.6, 52.1±0.22 and 50.6±0.95 at room temperature and 319.5±14.3, 86.0±5.05 and 96.9±9.28 at 37° C., respectively. Conclusions: The dissolution rates of all three Creatine forms were higher at 37° C. as compared to at room temperature. […] However, the dissolution rate of CN was not affected by the pH of the dissolution media. […] Results of this study further predict a better bioavailability of CN as compared to CM and BC.

A short description of data set [2]: Chemical stability of Creatine forms in solution. It counts as physicochemical. Particulars: for pH of samples, initial: start of storage; for degradation rate constant (k): ~10 mg/ml. The protocol: Methods: A known concentration (˜10 mg/ml) of CN, CM and BC were prepared in both pH 2.5 and pH 6.8 buffer and stored in stability chambers in screw-capped bottles at 37° C. and 40° C., respectively. Samples were collected at predetermined time points and analyzed for Creatine and degradation products if any, using a validated HPLC method. Changes in the pH, clarity and color of the samples were also determined. The order of degradation and rate constant were determined by graphical method. Results: The degradation rate constants (k) for CN, CM and BC at 37° C. in pH 2.5 buffer were 0.075±0.001, 0.119±0.011 and 0.108±0.002 (day-1) while that at 40° C. in pH 6.8 buffer were 0.115±0.001, 0.015±0.001 and 0.013±0.002 (day-1), respectively. The pH of CN samples at 40° C. in pH 6.8 buffer changed from 2.83±0.01 to 4.31±0.01 within a period of 12 days. The pH changes noticed at 37° C. in pH 2.5 buffer samples over the same period of time for CM, and BC were 3.08±0.01 to 4.12±0.01 and 3.11±0.01 and 4.16±0.01, respectively. […] No change in the color and the clarity was noticed over 12 days. Conclusions: All the Creatine samples followed first order degradation kinetics under both these experimental conditions. […] The major degradation product detected was Creatinine. For CN the increase in pH was higher at 40° C. in pH 6.8 buffer as compared to 37° C. in pH 2.5 buffer. However, opposite effect was noticed for both CM and BC.

Where [3] appears, read: pH 2.5 buffer, room temperature.
The mark [4] stands for this setting: pH 7.4 buffer, room temperature.

In the case of `CN(CC(=O)O)C(=N)N.O` [CM, Creatine monohydrate, reference compound], the “k' (slope, proportional to intrinsic dissolution rate constant)” value came out at 97.9±0.88 mg/cm2 hr in data set [1] (pH 2.5 buffer, 37° C.); 59.1±2.06 mg/cm2 hr in data set [1] (setting [3]); 86.0±5.05 mg/cm2 hr in data set [1] (pH 7.4 buffer, 37° C.); 52.1±0.22 mg/cm2 hr in data set [1] (setting [4]). The “pH of samples, after storage” value in data set [2] (37° C. in pH 2.5 buffer, over 12 days) is 4.12±0.01. Also, the “pH of samples, initial” value in data set [2] (37° C. in pH 2.5 buffer) came out at 3.08±0.01.
For `CN(CC(=O)O)C(=N)N.O=[N+]([O-])O` [CN, Creatine nitrate], the “k' (slope, proportional to intrinsic dissolution rate constant)” value in data set [1] (pH 2.5 buffer, 37° C.) is on record as 327.3±2.66 mg/cm2 hr; in data set [1] (setting [3]), 293.0±3.48 mg/cm2 hr; in data set [1] (pH 7.4 buffer, 37° C.), 319.5±14.3 mg/cm2 hr; in data set [1] (setting [4]), 278.9±14.6 mg/cm2 hr. Also, the entries for the “degradation rate constant (k)” value in data set [2] (37° C. in pH 2.5 buffer) and in data set [2] (40° C. in pH 6.8 buffer) were 0.075 ± 0.001 day⁻¹ and 0.115 ± 0.001 day⁻¹, respectively. Moreover, the “pH of samples, initial” value in data set [2] (40° C. in pH 6.8 buffer) turned out to be 2.83±0.01. For the same compound, in data set [2] (40° C. in pH 6.8 buffer, within a period of 12 days), the “pH of samples, after storage” value was 4.31±0.01.
